Measured values as given in patent publication US12180207B2 (ARRAY BIOPHARMA INC., priority 2018, dated 2024).

Experiments:
[1] = target: recombinant human FGFR3 (amino acids R397-T806) (Homo sapiens (Human), UniProt P22607); assay: FGFR3 enzyme activity assay (LanthaScreen TR-FRET); assay type: biochemical; conditions: 25 μM ATP, 10 min incubation at 22° C., average of multiple determinations if made, read-out: FGFR3 Enz FRET IC50
In short: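 GST-HIS6-tagged human FGFR3 (R397-T806) was reacted with 100 nM Alexa Fluor 647-Poly-GT substrate and 25 μM ATP plus compound in HEPES/MgCl2/Triton buffer, pH 7.5, 2% DMSO, for 10 min at 22 °C.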

[2] = target: dephosphorylated FGFR1 (SEQ ID NO: 1, amino acids 458 to 765) (Homo sapiens (Human), UniProt P11362); assay: FGFR enzyme binding assay (HTRF tracer displacement), FGFR1; conditions: 5 nM dephosphorylated FGFR1, average of multiple determinations if made
Sequence of dephosphorylated FGFR1 (SEQ ID NO: 1, amino acids 458 to 765) (P11362 458-765): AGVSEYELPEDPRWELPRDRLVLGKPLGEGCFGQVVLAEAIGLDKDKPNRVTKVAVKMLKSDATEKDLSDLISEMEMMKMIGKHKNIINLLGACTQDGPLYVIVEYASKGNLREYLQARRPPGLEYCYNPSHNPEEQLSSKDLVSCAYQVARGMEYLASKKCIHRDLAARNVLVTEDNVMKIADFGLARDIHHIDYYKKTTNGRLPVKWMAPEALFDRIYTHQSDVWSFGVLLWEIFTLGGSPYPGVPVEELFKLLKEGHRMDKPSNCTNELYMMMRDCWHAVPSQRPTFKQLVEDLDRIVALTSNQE
In short: (§1)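 Kinase and tracer were incubated with compound for 60 minutes at 22° C. Tracer displacement was then measured by HTRF, and results were expressed as POC with 1 μM control inhibitor defining full displacement.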

[3] = target: FGFR1 (SEQ ID NO: 1, amino acids 458-765) (Homo sapiens (Human), UniProt P11362); assay: LC/MS FGFR1 kobs assay (covalent protein modification); assay type: binding; conditions: 500 nM FGFR1, 3 μM compound
Sequence of FGFR1 (SEQ ID NO: 1, amino acids 458-765) (P11362 458-765): as above
In short: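 Covalent labeling of FGFR1 kinase domain (aa 458-765) tracked over time by intact-protein LC/MS after formic acid quench. kobs derived by fitting DMSO-normalized percent unmodified FGFR1 to an exponential decay model.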

[4] = target: recombinant human FGFR1 catalytic domain (amino acids 308-731) (Homo sapiens (Human), UniProt P11362); assay: FGFR1 enzyme activity assay (LanthaScreen TR-FRET); assay type: biochemical; conditions: 20 min incubation at 22° C., average of multiple determinations if made, read-out: FGFR1 Enz FRET IC50
Sequence of recombinant human FGFR1 catalytic domain (amino acids 308-731) (P11362 other isoform, or with tags, fused parts or gaps): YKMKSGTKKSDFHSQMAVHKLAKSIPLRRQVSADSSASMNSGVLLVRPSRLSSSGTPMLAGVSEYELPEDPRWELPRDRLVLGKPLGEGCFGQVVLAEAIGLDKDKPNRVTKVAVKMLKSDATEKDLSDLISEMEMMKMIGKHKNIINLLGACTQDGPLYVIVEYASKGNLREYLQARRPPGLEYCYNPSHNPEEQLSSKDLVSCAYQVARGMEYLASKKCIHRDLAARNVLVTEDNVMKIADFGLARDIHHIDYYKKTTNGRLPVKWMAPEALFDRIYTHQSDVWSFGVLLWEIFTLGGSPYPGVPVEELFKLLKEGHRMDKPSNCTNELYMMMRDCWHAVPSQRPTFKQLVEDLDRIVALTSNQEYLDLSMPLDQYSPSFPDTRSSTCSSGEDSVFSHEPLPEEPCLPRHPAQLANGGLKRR
In short: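 His-tagged FGFR1 kinase domain with 100 nM Alexa Fluor 647-poly-GT peptide and ATP in pH 7.5 HEPES/MgCl2 buffer with 2% DMSO, 20 min at 22 °C. Quenched with EDTA plus 2 nM Eu-PY20 antibody and read after 60 min. IC50 comes from a 4-parameter fit of percent of control.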

[5] = target: phosphorylated FGFR3 (SEQ ID NO: 5, amino acids 449 to 759) (Homo sapiens (Human), UniProt P22607); assay: FGFR enzyme binding assay (HTRF tracer displacement), FGFR3; conditions: 5 nM phosphorylated FGFR3, average of multiple determinations if made
Sequence of phosphorylated FGFR3 (SEQ ID NO: 5, amino acids 449 to 759) (P22607 449-759): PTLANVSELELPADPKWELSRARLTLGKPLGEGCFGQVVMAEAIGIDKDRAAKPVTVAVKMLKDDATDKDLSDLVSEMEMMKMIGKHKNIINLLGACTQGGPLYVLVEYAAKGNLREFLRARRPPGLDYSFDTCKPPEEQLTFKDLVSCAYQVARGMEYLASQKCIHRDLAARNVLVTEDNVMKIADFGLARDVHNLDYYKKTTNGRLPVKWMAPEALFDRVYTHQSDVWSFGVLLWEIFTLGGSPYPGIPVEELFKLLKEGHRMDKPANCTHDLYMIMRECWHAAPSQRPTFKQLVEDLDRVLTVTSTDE
In short: as §1

Sequence of recombinant human FGFR3 (amino acids R397-T806) (P22607 397-806): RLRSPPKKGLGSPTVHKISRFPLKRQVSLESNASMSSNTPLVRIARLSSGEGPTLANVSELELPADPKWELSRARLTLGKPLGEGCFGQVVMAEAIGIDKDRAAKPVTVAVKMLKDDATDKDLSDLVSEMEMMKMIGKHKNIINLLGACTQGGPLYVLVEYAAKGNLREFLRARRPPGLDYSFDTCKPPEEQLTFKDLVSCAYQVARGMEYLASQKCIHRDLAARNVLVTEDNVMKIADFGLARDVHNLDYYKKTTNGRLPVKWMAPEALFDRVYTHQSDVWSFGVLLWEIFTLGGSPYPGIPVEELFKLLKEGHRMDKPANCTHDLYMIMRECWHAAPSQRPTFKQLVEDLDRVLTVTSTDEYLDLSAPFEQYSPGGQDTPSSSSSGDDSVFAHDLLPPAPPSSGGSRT

Row | SMILES | IC50 [1] | IC50 [2] | FGFR1 Enz kobs [3] | IC50 [4] | IC50 [5]
1 | C=CC(=O)N1CC(CC)(C(=O)N2CCC(n3cc(-c4cc(OC)c5c(C#N)cnn5c4)cn3)CC2)C1 [Example 40, 6-(1-(1-(1-acryloyl-3-ethylazetidine-3-carbonyl)piperidin-4-yl)-1H-pyrazol-4-yl)-4-methoxypyrazolo[1,5-a]pyridine-3-carbonitrile] | 2 nM | 38 nM | 0.00138 min⁻¹ | 9 nM | 5 nM
2 | C=CC(=O)N1CC(OC)(C(=O)N2CCC(n3cc(-c4cc(OC)c5c(C#N)cnn5c4)cn3)CC2)C1 [Example 41, 6-(1-(1-(1-acryloyl-3-methoxyazetidine-3-carbonyl)piperidin-4-yl)-1H-pyrazol-4-yl)-4-methoxypyrazolo[1,5-a]pyridine-3-carbonitrile] | 2 nM | 61 nM | 0.00254 min⁻¹ | 2 nM | 3 nM
3 | C=CC(=O)N1CC(C(=O)N2CCC(n3cc(-c4cc(OC)c5c(C#N)cnn5c4)cn3)CC2)C1C (centres unmarked) [Example 42, 6-(1-(1-(1-acryloyl-2-methylazetidine-3-carbonyl)piperidin-4-yl)-1H-pyrazol-4-yl)-4-methoxypyrazolo[1,5-a]pyridine-3-carbonitrile] | 2 nM | 43 nM | 0.00113 min⁻¹ | 11 nM | 3 nM
4 | C=CC(=O)N1CC(C(=O)N2CCC(n3cc(-c4cc(OC)c5c(C#N)cnn5c4)cn3)CC2)C1(C)C (centres unmarked) [Example 43, 6-(1-(1-(1-acryloyl-2,2-dimethylazetidine-3-carbonyl)piperidin-4-yl)-1H-pyrazol-4-yl)-4-methoxypyrazolo[1,5-a]pyridine-3-carbonitrile] | 2 nM | 54 nM | 0.0005 min⁻¹ | 6 nM | 4 nM
5 | C=CC(=O)N1CC(C(=O)N2C3CCC2CN(c2ccc(-c4cc(OC)c5c(C#N)cnn5c4)cn2)C3)C1 [Example 50, 6-(6-(8-(1-acryloylazetidine-3-carbonyl)-3,8-diazabicyclo[3.2.1]octan-3-yl)pyridin-3-yl)-4-methoxypyrazolo[1,5-a]pyridine-3-carbonitrile] | 10 nM | 27 nM | 0.00381 min⁻¹ | 24 nM | 3 nM
6 | C=CC(=O)N1CC(C(=O)N2CC3CCC(C2)N3c2ccc(-c3cc(OC)c4c(C#N)cnn4c3)cn2)C1 [Example 51, 6-(6-(3-(1-acryloylazetidine-3-carbonyl)-3,8-diazabicyclo[3.2.1]octan-8-yl)pyridin-3-yl)-4-methoxypyrazolo[1,5-a]pyridine-3-carbonitrile] | 22 nM | 70 nM | 0.00338 min⁻¹ | 34 nM | 9 nM
7 | C=CC(=O)N1CC(C(=O)N2C3CC2CN(c2ccc(-c4cc(OC)c5c(C#N)cnn5c4)cn2)C3)C1 [Example 52, 6-(6-(6-(1-acryloylazetidine-3-carbonyl)-3,6-diazabicyclo[3.1.1]heptan-3-yl)pyridin-3-yl)-4-methoxypyrazolo[1,5-a]pyridine-3-carbonitrile] | 34 nM | 86 nM | 0.00086 min⁻¹ | 66 nM | 14 nM
8 | C=CC(=O)Nc1ccc(C(=O)N2CC[C@@H](n3cc(-c4cc(OC)c5c(C#N)cnn5c4)cn3)C2)cc1 [Example 55, (R)-N-(4-(3-(4-(3-cyano-4-methoxypyrazolo[1,5-a]pyridin-6-yl)-1H-pyrazol-1-yl)pyrrolidine-1-carbonyl)phenyl)acrylamide] | 9 nM | 98 nM | 0.00277 min⁻¹ | 19 nM | 7 nM
9 | C=CC(=O)Nc1cccc(C(=O)N2CC[C@@H](n3cc(-c4cc(OC)c5c(C#N)cnn5c4)cn3)C2)c1 [Example 56, (R)-N-(3-(3-(4-(3-cyano-4-methoxypyrazolo[1,5-a]pyridin-6-yl)-1H-pyrazol-1-yl)pyrrolidine-1-carbonyl)phenyl)acrylamide] | 10 nM | 135 nM | 0.00181 min⁻¹ | 28 nM | 18 nM
10 | C=CC(=O)N1CC(C(=O)N2CC[C@@H](n3cc(-c4cc(OC)c5c(C#N)cnn5c4)cn3)C2)C1 [Example 59, (R)-6-(1-(1-(1-acryloylazetidine-3-carbonyl)pyrrolidin-3-yl)-1H-pyrazol-4-yl)-4-methoxypyrazolo[1,5-a]pyridine-3-carbonitrile] | 16 nM | 115 nM | 0.00106 min⁻¹ | 47 nM | 16 nM
11 | C=CC(=O)Nc1ccc(C(=O)N2CC[C@H](n3cc(-c4cc(OC)c5c(C#N)cnn5c4)cn3)C2)cc1 [Example 66, (S)-N-(4-(3-(4-(3-cyano-4-methoxypyrazolo[1,5-a]pyridin-6-yl)-1H-pyrazol-1-yl)pyrrolidine-1-carbonyl)phenyl)acrylamide] | 7 nM | 72 nM | 0.00332 min⁻¹ | 16 nM | 10 nM
12 | C=CC(=O)Nc1ccc(C(=O)N2CC[C@H](n3cc(-c4cc(OC)c5c(C#N)cnn5c4)cn3)C2)c(C)c1 [Example 68, (S)-N-(4-(3-(4-(3-cyano-4-methoxypyrazolo[1,5-a]pyridin-6-yl)-1H-pyrazol-1-yl)pyrrolidine-1-carbonyl)-3-methylphenyl)acrylamide] | 5 nM | 94 nM | 0.00181 min⁻¹ | 6 nM | 13 nM
13 | C=CC(=O)Nc1ccc(C(=O)N2CC[C@H](n3cc(-c4cc(OC)c5c(C#N)cnn5c4)cn3)C2)c(OC)c1 [Example 69, (S)-N-(4-(3-(4-(3-cyano-4-methoxypyrazolo[1,5-a]pyridin-6-yl)-1H-pyrazol-1-yl)pyrrolidine-1-carbonyl)-3-methoxyphenyl)acrylamide] | 6 nM | 77 nM | 0.00422 min⁻¹ | 12 nM | 11 nM
14 | C=CC(=O)Nc1ccc(C(=O)N2CC[C@H](n3cc(-c4cc(OC)c5c(C#N)cnn5c4)cn3)C2)cc1C [Example 70, (S)-N-(4-(3-(4-(3-cyano-4-methoxypyrazolo[1,5-a]pyridin-6-yl)-1H-pyrazol-1-yl)pyrrolidine-1-carbonyl)-2-methylphenyl)acrylamide] | 6 nM | 199 nM | 0.00278 min⁻¹ | 16 nM | 30 nM
15 | C=CC(=O)Nc1ccc(C(=O)N2CC[C@H](n3cc(-c4cc(OC)c5c(C#N)cnn5c4)cn3)C2)cc1OC [Example 71, (S)-N-(4-(3-(4-(3-cyano-4-methoxypyrazolo[1,5-a]pyridin-6-yl)-1H-pyrazol-1-yl)pyrrolidine-1-carbonyl)-2-methoxyphenyl)acryla72 mide] | 6 nM | 147 nM | 0.00457 min⁻¹ | 18 nM | 18 nM
16 | C=CC(=O)N1CC(C(=O)N2CC[C@H](n3cc(-c4cc(OC)c5c(C#N)cnn5c4)cn3)C2)C1 [Example 73, (S)-6-(1-(1-(1-acryloylazetidine-3-carbonyl)pyrrolidin-3-yl)-1H-pyrazol-4-yl)-4-methoxypyrazolo[1,5-a]pyridine-3-carbonitrile] | 4 nM | 58 nM | 0.00108 min⁻¹ | 20 nM | 7 nM
17 | C=CC(=O)N1CC[C@H](C(=O)N2CC(n3cc(-c4cc(OC)c5c(C#N)cnn5c4)cn3)C2)C1 [Example 76, (S)-6-(1-(1-(1-acryloylpyrrolidine-3-carbonyl)azetidin-3-yl)-1H-pyrazol-4-yl)-4-methoxypyrazolo[1,5-a]pyridine-3-carbonitrile] | 13 nM | 409 nM | 0.0007 min⁻¹ | 52 nM | 55 nM
18 | C=CC(=O)N1CC(C(=O)N2CC(n3cc(-c4cc(OC)c5c(C#N)cnn5c4)cn3)C2)C1 [Example 78, 6-(1-(1-(1-acryloylazetidine-3-carbonyl)azetidin-3-yl)-1H-pyrazol-4-yl)-4-methoxypyrazolo[1,5-a]pyridine-3-carbonitrile] | 12 nM | 98 nM | 0.00146 min⁻¹ | 17 nM | 8 nM
19 | C=CC(=O)N1CC(CN2CC(n3cc(-c4cc(OC)c5c(C#N)cnn5c4)cn3)C2)C1 [Example 81, 6-(1-(1-((1-acryloylazetidin-3-yl)methyl)azetidin-3-yl)-1H-pyrazol-4-yl)-4-methoxypyrazolo[1,5-a]pyridine-3-carbonitrile] | 9 nM | 186 nM | 0.00086 min⁻¹ | 31 nM | 60 nM
